Drawing on patent US10889595B2, “[1,3]thiazin-2-amine compound, application, and pharmaceutical composition” (TETRANOV PHARMACEUTICAL CO., LTD., priority 2016, dated 2021), this text covers IC50 for five compounds.

BACE1, sequence (P56817 46-501): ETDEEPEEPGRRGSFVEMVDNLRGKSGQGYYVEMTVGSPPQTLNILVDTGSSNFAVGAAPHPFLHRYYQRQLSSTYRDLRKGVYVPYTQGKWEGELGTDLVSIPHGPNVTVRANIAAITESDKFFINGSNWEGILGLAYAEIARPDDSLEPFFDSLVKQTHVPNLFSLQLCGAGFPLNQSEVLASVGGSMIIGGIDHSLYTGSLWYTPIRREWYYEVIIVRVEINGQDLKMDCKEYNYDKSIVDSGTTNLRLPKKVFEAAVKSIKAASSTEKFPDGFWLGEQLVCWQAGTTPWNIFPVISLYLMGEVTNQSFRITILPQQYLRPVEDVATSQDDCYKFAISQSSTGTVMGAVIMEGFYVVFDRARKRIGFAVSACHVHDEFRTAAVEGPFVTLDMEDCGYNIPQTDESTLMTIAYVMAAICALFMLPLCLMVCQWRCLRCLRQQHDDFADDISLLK

For this test, the target named is BACE1 (Homo sapiens (Human), UniProt P56817). The test is described as follows: Activity assay: inhibitory activity against the enzyme BACE1. It counts as biochemical. The note with it: 10 doses, 3-fold serial dilution starting from 10 μmol/L, singlet. On the procedure:
The activity assay for the compound of each example was carried out in this experimental example, and the detailed test method was as follows:
1. The test compound was formulated as […] solution in dimethylsulfoxide;
2. Starting from 10 μmol/L, by 3-fold serial dilution, the inhibitory activity of each compound against the enzyme was tested in singlet state at 10 doses;
3. IC50 values of test compounds were finally obtained.
A word on the IC50: it is the concentration that inhibits the measured activity by half. Low values mean inhibition by little substance, high ones a need for much substance. The compound `COc1cnc(C(=O)Nc2cccc([C@]34CO[C@@H](C)C[C@@]3(F)CSC(N)=N4)c2)cn1` [Example 14, N-(3-((4aS,6S,8aS)-2-amino-4a-fluoro-6-methyl-4,4a,5,6,8,8a-hexahydropyrano[3,4-d][1,3]thiazin-8a-yl)phenyl)-5-methoxypyrazin-2-carboxamide] came in with an IC50 of 130 nM. Next, `C[C@H]1C[C@@]2(F)CSC(N)=N[C@@]2(c2cc(N)ccc2F)CO1` [Example 7, (4aS,6S,8aS)-8a-(5-amino-2-fluorophenyl)-4a-fluoro-6-methyl-4,4a,5,6,8,8a-hexahydropyrano[3,4-d][1,3]thiazin-2-amine]: 5870 nM; `Cc1cnc(C(=O)Nc2cccc([C@]34CO[C@@H](C)C[C@@]3(F)CSC(N)=N4)c2)cn1` [Example 15, N-(3-((4aS,6S,8aS)-2-amino-4a-fluoro-6-methyl-4,4a,5,6,8,8a-hexahydropyrano[3,4-d][1,3]thiazin-8a-yl)phenyl)-5-methylpyrazin-2-carboxamide]: 225 nM. `C[C@H]1C[C@@]2(F)CSC(N)=N[C@@]2(c2cc(NC(=O)c3ccc(Cl)cn3)ccc2F)CO1` [Example 11, N-(3-((4aS,6S,8aS)-2-amino-4a-fluoro-6-methyl-4,4a,5,6,8,8a-hexahydropyrano[3,4-d][1,3]thiazin-8a-yl)-4-fluorophenyl)-5-chloropicolinamide] registered a half-inhibitory concentration (IC50) of 172 nM. `COc1cnc(C(=O)Nc2ccc(F)c([C@]34CO[C@@H](C)C[C@@]3(F)CSC(N)=N4)c2)cn1` [Example 12] showed an IC50 of 150 nM.
